Data taken from patent EP1200093B1, “USE OF 2-AMINO-4-(4-FLUORONAPHTH-1-YL)-6-ISOPROPYLPYRIMIDINE IN THE TREATMENT OF GI DISORDERS” (priority 1999, dated 2001).
Several values for one entry are separate records, joined by “and”; a condition that tells them apart may be missing. Identical values can stand only once.

Legend:
[1] = biological target: T1, 5-HT receptor in human colon longitudinal muscle (Homo sapiens, UniProt P41595); experiment: cell-based; assay type: cell-based
T1 construct: Longitudinal muscle strips (2mm wide by 20mm long) were then cut from the tissue between the taenia coli; from tissue; host or cells: human colon longitudinal muscle strips, electrically stimulated

5-HT2B [2] = biological target: T2, 5-HT2B (Homo sapiens, UniProt P41595); conditions: human receptor, comparison data; cited from earlier work
5-HT4 [3] = biological target: T3, 5-HT4 (Homo sapiens, UniProt Q13639); conditions: human receptor, comparison data; cited from earlier work
5-HT2B [4] = biological target: T2, 5-HT2B; conditions: * responses to 5-HT in human isolated tissues; cited from earlier work
5-HT2C = biological target: T4, 5-HT2C (Homo sapiens, UniProt P28335); conditions: * responses to 5-HT in human isolated tissues; cited from earlier work
T4 sequence (P28335 33-458): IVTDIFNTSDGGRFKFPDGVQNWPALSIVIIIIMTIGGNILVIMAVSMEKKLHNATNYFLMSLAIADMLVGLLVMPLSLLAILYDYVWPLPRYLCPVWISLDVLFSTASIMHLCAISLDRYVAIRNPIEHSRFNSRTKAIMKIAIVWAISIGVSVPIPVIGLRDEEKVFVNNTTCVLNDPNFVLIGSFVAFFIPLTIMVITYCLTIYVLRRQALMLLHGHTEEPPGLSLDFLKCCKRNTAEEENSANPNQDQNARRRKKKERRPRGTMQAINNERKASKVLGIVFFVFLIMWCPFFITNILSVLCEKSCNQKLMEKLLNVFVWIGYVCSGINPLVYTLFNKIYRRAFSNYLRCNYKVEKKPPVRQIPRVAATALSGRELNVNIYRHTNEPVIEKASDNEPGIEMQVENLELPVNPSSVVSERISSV

5-HT4 [5] = biological target: T3, 5-HT4; conditions: * responses to 5-HT in human isolated tissues; cited from earlier work
[6] = test system: 5-HT receptor in human colon longitudinal muscle; experiment: cell-based; assay type: cell-based

T1 sequence (P41595 whole entry): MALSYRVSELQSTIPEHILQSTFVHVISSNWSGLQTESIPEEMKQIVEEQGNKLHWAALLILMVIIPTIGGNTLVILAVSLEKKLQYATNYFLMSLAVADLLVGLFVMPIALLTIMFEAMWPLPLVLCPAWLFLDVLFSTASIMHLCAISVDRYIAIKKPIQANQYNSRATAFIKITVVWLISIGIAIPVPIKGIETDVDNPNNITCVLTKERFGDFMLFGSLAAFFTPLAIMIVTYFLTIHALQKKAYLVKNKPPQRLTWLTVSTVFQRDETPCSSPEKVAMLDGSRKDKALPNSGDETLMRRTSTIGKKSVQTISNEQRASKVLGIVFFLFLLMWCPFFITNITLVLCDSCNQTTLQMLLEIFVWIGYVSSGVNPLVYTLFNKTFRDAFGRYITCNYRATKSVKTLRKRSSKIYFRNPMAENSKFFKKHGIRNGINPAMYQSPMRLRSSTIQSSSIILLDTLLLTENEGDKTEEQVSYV
T2 sequence (P41595 whole entry): as above
T3 sequence (Q13639 whole entry): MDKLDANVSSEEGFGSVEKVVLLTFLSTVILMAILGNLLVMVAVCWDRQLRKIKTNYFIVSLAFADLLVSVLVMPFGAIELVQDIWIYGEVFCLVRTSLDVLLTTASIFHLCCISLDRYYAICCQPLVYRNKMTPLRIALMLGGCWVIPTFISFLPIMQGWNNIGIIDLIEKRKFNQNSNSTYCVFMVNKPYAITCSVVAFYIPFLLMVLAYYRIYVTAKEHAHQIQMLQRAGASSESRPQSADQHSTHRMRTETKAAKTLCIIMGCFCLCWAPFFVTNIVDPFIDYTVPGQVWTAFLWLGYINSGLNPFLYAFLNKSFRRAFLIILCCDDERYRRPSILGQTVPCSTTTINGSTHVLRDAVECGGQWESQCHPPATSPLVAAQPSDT

| SMILES | EC50 [1] [nM] | mean pEC50, 5-HT2B (5-HT2B [2]) | mean pEC50, 5-HT4 (5-HT4 [3]) | mean pKB or pA2, 5-HT4 (5-HT4 [5]) | further results |
| --- | --- | --- | --- | --- | --- |
| Cc1cc2c(cc1Cl)N(C(=O)Nc1ccc(Oc3cccnc3C)nc1)CC2 [SB 242084] |  |  |  |  | Kb [1]: 501 nM |
| COc1ccc2[nH]cc(CCN)c2c1 [5-MeOT] | 158 | 7.6 | 6.2 |  |  |
| Cc1[nH]c2ccc(O)cc2c1CCN [2-Me-5-HT] | 100 | 6.7 | 6.0 |  |  |
| Cn1ccc2cc3c(cc21)CCN3C(=O)Nc1cccnc1 [SB 206553] |  |  |  |  | Affinity (pKB) at the 5-HT receptor in human colon longitudinal muscle ([1]; antagonism of 5-HT in electrically-stimulated strips, at least 3 donors (RS127445: n>4 donors)): 8.5±0.1; mean pKB or pA2, 5-HT2B (5-HT2B [4]): 9.0* |
| CC[C@@H](CO)NC(=O)[C@@H]1C=C2c3cccc4c3c(cn4C)C[C@H]2N(C)C1 [Methysergide] |  |  |  | <5.0* | mean pKB or pA2, 5-HT2C (5-HT2C): 8.9* |
| CC(C)c1cc(-c2ccc(F)c3ccccc23)nc(N)n1 [RS127445, 2-amino-4-(4-fluoronaphth-1-yl)-6-isopropylpyrimidine] |  |  |  |  | Kb [1]: 0.316 nM and 0.355 nM; Schild analysis, slope of plot ([1]; antagonism of 5-HT, RS127445 0.3nM to 100nM): 0.93±0.17 |
| O=C(c1ccc(F)cc1)C1CCN(CCn2c(=O)[nH]c3ccccc3c2=O)CC1 [Ketanserin] |  |  |  | 4.7* |  |
| CSc1ccc2c(c1)C(N1CCN(C)CC1)Cc1ccccc1S2 (stereo not shown) [Methiothepin] |  |  |  | <6.0* |  |
| CC(N)Cc1c[nH]c2ccc(O)cc12 (stereo not drawn) [Alpha-Me-5-HT] | 3.16 | 8.4 | 6.2 |  |  |
| CN1[C@@H]2CC[C@H]1C[C@@H](OC(=O)C(CO)c1ccccc1)C2 (stereo partly shown) [atropine] |  |  |  |  | effect on electrically-induced contractile response [6]: inhibited |
